Experimental data taken from patent EP1200099B1, “SYNERGISTIC COMPOSITION COMPRISING DAUNORUBICIN DERIVATIVES AND ANTI[…]” (Pharmacia Italia S.p.A., priority 1999, dated 2001).

System: disseminated L1210 murine leukemia
Test: Antileukemic activity on disseminated L1210 murine leukemia (in vivo survival)
Set-up: species or system mouse CD2F1
Details: for toxicity (in words): single agents: gemcitabine 15 and 60 mg/kg ip day 1, PNU 159548 1 and 1.5 mg/kg iv day 1
Description: The superadditive actions of the combination preparation of the present invention may be shown for instance by in vivo tests for the antileukemic activity on disseminated L1210 murine leukemia. The combination of Ia with gemcitabine (Table 1) or 5-Fluorouracil tested at the different doses and schedules, produces favorable ILS% values (Increase in life span: [(median survival time of treated mice/median survival time of controls)x 100]-100), indicating a synergistic effect.
By combining gemcitabine and PNU 159548 at the same doses and with the same schedule, an increase of activity with ILS% values of 117 and 204 were observed, indicating a synergistic effect as shown by the combination index (CI) of […], respectively.
For these experiments Ia was solubilized in [Cremophor® /EtOH = 6.5:3.5]/[normal saline]=20/80 v/v, while standard pharmaceutical preparation were used for the antimetabolite compounds.

[1] = PNU 159548 alone, iv day +1, 1 mg/kg/day
[2] = PNU 159548 alone, iv day +1, 1.5 mg/kg/day
[3] = gemcitabine alone, ip day +1, 15 mg/kg/day
[4] = gemcitabine alone, ip day +1, 60 mg/kg/day

Structure (SMILES)	LTS: long-term survivors (>60 days) at the end of the experiments [1]	TOX: Number of toxic deaths/number of mice [1]	ILS% (PNU 159548 alone, iv day +1, 1 mg/kg/day, L1210 cells 10^5/mouse IV on Day 0) [%]	ILS% [2] [%]	LTS: long-term survivors (>60 days) at the end of the experiments [2]	TOX: Number of toxic deaths/number of mice [2]	toxicity (in words)	ILS% [3] [%]	LTS: long-term survivors (>60 days) at the end of the experiments [3]	TOX: Number of toxic deaths/number of mice [3]	ILS% [4] [%]	LTS: long-term survivors (>60 days) at the end of the experiments [4]	TOX: Number of toxic deaths/number of mice [4]
CC(=O)[C@]1(O)Cc2c(O)c3c(c(O)c2[C@@H](O[C@H]2C[C@H](N4CC4)[C@H](OS(C)(=O)=O)[C@H](C)O2)C1)C(=O)c1ccccc1C3=O [PNU 159548, 4-demethoxy-3'-deamino-3'-aziridinyl-4'-methansulfonyl daunorubicin]	0/10	0/10	33	67	0/20	0/20	without toxicity						
Nc1ccn([C@@H]2O[C@H](CO)[C@@H](O)C2(F)F)c(=O)n1 [Gemcitabine, gemcitabine]							without toxicity	50	0/10	0/10	83	0/20	0/20
